Values of other authors in patent US9801890B2, “Medical methods utilising high purity diaminophenothiazinium compounds” (WisTa Laboratories Ltd., priority 2004, dated 2017).

How the values were obtained:
HIV = conditions: laboratory tests
West Nile Virus = conditions: laboratory tests
viruses = conditions: in vitro

Structure (SMILES): CN(C)c1ccc2nc3ccc(N(C)C)cc3[s+]c2c1.[Cl-] [MTC, 3,7-bis(dimethylamino) phenothiazin-5-ium chloride]
- effectiveness against virus (HIV): effective
- effectiveness against virus (West Nile Virus): effective
- viricidal activity (viruses): potent viricidal activity
